In publication PMC7321108, “1-Hydroxyanthraquinones Containing Aryl Substituents as Potent and Selective Anticancer Agents” (Molecules, 2020):
Read-outs that look alike come from different tables or passages of the source.

How the values were obtained:
[1] = tested on: LNCAP prostate cancer cells; experiment: MTT cytotoxicity assay, LNCAP; format: cell-based, human; details: 72 h incubation, mean ± SEM of three experiments, read-out: Cytotoxicity (GI50) against LNCAP
Protocol: (§1) The cytotoxicity of the synthesized series of 4-substituted 5, 13–17, 22, 23, 2-substituted 25–30 and 2,4-disubstituted 1-hydroxy-9,10-anthraquinones 33–38, 40–45 was evaluated against a panel of seven different human cancer cell lines (glioblastoma cancer cells, human prostate cancer cells, T-cellular human leucosis, breast cancer cells) and also a normal cell line of hTERT-immortalized lung fibroblasts, using conventional MTT assay. Doxorubicin (DOX) is clinically used to treat cancer as drug in world and have a very wide antitumor spectrum. That we use them as positive control compounds. The cytotoxicity was determined by measuring the concentration inhibiting human tumor cell viability by 50% (GI50).
(§2) The human cancer cells of the glioblastoma (U-87MG, SNB-19, T98G), prostate cancer cell line (LNCAP, DU-145), the cells of T-cellular human leucosis (MT-4) and human breast cancer cells (MDA-MB-231) were used in this study. The cells were cultured in the RPMI-1640 medium that contained 10% embryonic calf serum, L-glutamine (2 mmol/L), gentamicin ([…]) and lincomycin (30 mkg/mL) in a CO2 incubator at 37 °C. The tested compounds were dissolved in DMSO and added to the cellular culture at the required concentrations. Three wells were used for each concentration. The cells which were incubated without the compounds were used as a control. Cells were placed on 96-well microliter plates and cultivated at 37 °C in 5% CO2/95% air for 72 h. The cell viability was assessed through an MTT [3-(4,5-dimethylthiazol-2-yl)-[…]-2H-tetrazolium bromide] conversion assay. A total of 1% MTT was added to each well. Four hours later, DMSO was added and mixed for 15 min. Optical density (D) of the samples was measured on a BioRad 680 multi-well spectrophotometer (USA) at the wavelength of 450 nm. The 50% cytotoxic dose GI50) of each compound (i.e., the compound concentration that causes the death of 50% of cells in a culture, or decreases the optical density twice as compared to the control wells) was calculated from the data obtained. Statistical processing of the results was performed using the Microsoft Excel-2007, […] 6.0 and GraphPad Prism 5.0 programs. The results are given as an average value ± a deviation from the average (mean ± standard error of the mean (SEM)). Reliability of differences (p) was estimated using the Student t test. The differences with p < 0.05 were considered as reliable. The experimental results are given as the data average values obtained from three independently conducted experiments.

[2] = tested on: SNB-19 glioblastoma cells; experiment: MTT cytotoxicity assay, SNB-19; format: cell-based; details: Homo sapiens, 72 h incubation, mean ± SEM of three experiments, read-out: Cytotoxicity (GI50) against SNB-19
Protocol: as §1, §2

[3] = tested on: pUC19 DNA plasmid; experiment: Gel retardation (electrophoretic mobility shift) assay; format: binding; details: 0.5 µg pUC19 plasmid, 0.025 µM test compound, room temperature 1 h, agarose gel 60 V 4 h
Protocol: The interaction of compounds 13, 15, 16, 23, 25 27, 28, 35, 40 and 44 with DNA was experimentally confirmed by study of the electrophoretic mobility. For this the gel retardation assay was performed. Doxorubicin in different concentration was used as a positive control. In order to avoid destruction of the possible complex of DNA with compounds, the electrophoresis was performed at low voltage. The results are presented at Figure 3.
To study the interaction between test compounds and DNA the electrophoretic mobility shift assay was performed. 0.5 µg of pUC19 plasmid was incubated with 0.025 µM of test compounds at room temperature for 1 h. After that the electrophoresis was performed in agarose gel (1/2%) in TBE buffer (60 V, 4 h). For visualization the gel was staining with ethidium bromide and analyzed with Bio-Rad gel documentation system.

[4] = tested on: U-87MG glioblastoma cells; experiment: MTT cytotoxicity assay, U-87MG; format: cell-based; details: Homo sapiens, 72 h incubation, mean ± SEM of three experiments, read-out: Cytotoxicity (GI50) against U-87MG
Protocol: as §1, §2

[5] = tested on: T98G glioblastoma cells; experiment: MTT cytotoxicity assay, T98G; format: cell-based; details: Homo sapiens, 72 h incubation, mean ± SEM of three experiments, read-out: Cytotoxicity (GI50) against T98G
Protocol: as §1, §2

[6] = MTT cytotoxicity assay, normal hTERT-immortalized lung fibroblasts; format: cell-based; details: human, hTERT-immortalized lung fibroblasts (normal cell line), 72 h incubation, mean ± SEM of three experiments, read-out: Cytotoxicity (GI50) against hTERT Lung Fibroblasts
Protocol: as §1, §2

[7] = tested on: MT-4 cells of T-cellular human leucosis; experiment: MTT cytotoxicity assay, MT-4; format: cell-based; details: MT4, 72 h incubation, mean ± SEM of three experiments, read-out: Cytotoxicity (GI50) against MT-4
Protocol: as §1, §2

[8] = tested on: MDA-MB-231 breast cancer cells; experiment: MTT cytotoxicity assay, MDA-MB-231; format: cell-based; details: Homo sapiens, 72 h incubation, mean ± SEM of three experiments, read-out: Cytotoxicity (GI50) against MDA-MB-231
Protocol: as §1, §2

[9] = tested on: DU-145 prostate cancer cells; experiment: MTT cytotoxicity assay, DU-145; format: cell-based, human; details: Homo sapiens, DU-145, 72 h, 72 h incubation, mean ± SEM of three experiments, read-out: Cytotoxicity (GI50) against DU-145
Protocol: as §1, §2

[10] = tested on: SNB-19 cells; experiment: DNA synthesis investigation (BrdU/PI flow cytometry), SNB-19; format: cell-based, human; details: SNB-19, treated at GI50 concentration, 24 h, BrdU 30 min
Protocol: Cell cycle analysis was performed by Flow Cytometry using BrdU and PI staining [63]. For this experiment cells were seeded in 6-well plates (30,000 per plate) and incubate for adhesion for 24 h. […] For the next step the BrdU stock was added at a final concentration of 30 µM and cells were incubated for 30 min. Cells were washed with PBS, harvested using trypsine and resuspended at 0.3 mL of PBS. Permeabilization of cell membrane was performed as follows: 0.7 mL of ice-cold 100% EtOH was added into each sample, mixed gently and incubate at 4 °C for 1 h. Cells were pelleted and supernatant was removed completely. Then 0.5 mL of 2 N HCl/0.5% Triton X-100 was added and samples were incubated 30 min at room temperature. Cells were pelleted again, supernatant was removed. The pellet was resuspended in 0.5 mL of 0.1 M sodium tetraborate for 2 min and cells were pelleted again, washed with 150 µL of PBS/1% BSA and resuspended in 50 µM 0.5% Tween 20/1% BSA/PBS. […] After that the samples were resuspended in 0.5 mL of PBS containing 10 mg/mL RNAse A and 20 mg/mL PI. Samples were incubated at room temperature for 30 min and analyzed immediately or store at 4 °C. CytoFLEX flow cytometer (Beckman Coulter) was used for analysis. The results are presented as a percentage of cell population standing in DNA synthesis process.

[11] = tested on: SNB-19 cells; experiment: Cell cycle analysis by flow cytometry (Hoechst 33342), SNB-19; format: cell-based, human; details: SNB-19, treated at GI50 concentration, 24 h
Protocol: Due to the fact that the implementation of the antitumor potential of the currently existing antitumor agents is carried out by acting on various biological targets, at the next stage we performed the cell cycle analysis and DNA synthesis. Cell cycle analysis of 1-hydroxy-4-phenyl-9,10-anthraquinone 13, 1-hydroxy-4-(2,3-dimethoxyphenyl)-9,10- anthraquinone 16, 1-hydroxy-4-(furan-3-yl)-9,10-anthraquinone 23 and 1-hydroxy- 2-(2,3-dimethoxyphenyl)-9,10-anthraquinone 28 against SNB-19 cells for 24 h produced interesting results. After examining the data for compounds 13 and 16 (Table 3, Figure 4C,D), good number of cells are distributed in S phase, i.e., initiated DNA replication mechanism and also in G0/G1 phase, i.e., initial phase of cell cycle. G1 and G2 are the growth phases in cell cycle analysis, whereas S phase is a synthetic phase wherein DNA replication and DNA synthesis take place. The 2-aryl substituted compound 28 initiated the G0/G1 phase in analogy with doxorubicin and mitomycin. […] Further, compounds play a vital role in controlling the regulation of Sub-G1 and G2/M phases. Some difference in the mechanism of operation of 4-aryl substituted 13,16 and 2-aryl substituted 9,10-anthraquinones 28 has been observed during the progression of cell cycle like: S phase was highly disturbed by 13; G0/G1 phase was highly disturbed by 28. […] This observation can be explained by the influence on the cell repair systems that respond to the intercalation of compounds in DNA. […] Further, mitoxantrone promotes the arrest of S phase of cell cycle.
For cell cycle analysis cells were seeded in 6-well plates (30,000 per plate) and incubate for adhesion for 24 h. […] Cells were washed with PBS twice, harvested, pelleted and resuspended in 0.5 mL of PBS. For staining the Hoechst 33342 Ready Flow Reagent (Invitrogen) was used according to the instruction. CytoFLEX flow cytometer (Beckman Coulter) was used for analysis. The results are presented as a percentage of cell population standing in different stages of the cell cycle.

Compound	GI50 ([1]; Homo sapiens, LNCaP, 72 h)	GI50 [2]	melting point	Retardation of plasmid DNA (electrophoretic mobility) [3]	GI50 [4]	GI50 [5]	GI50 at 72 h [6]	GI50 [7]	GI50 [8]	GI50 [9]	Population (% Cell Distribution) DNA Synthesis [10]	Population (% Cell Distribution) G0/G1 [11]	Population (% Cell Distribution) G2/M [11]	Population (% Cell Distribution) S [11]	Population (% Cell Distribution) Sub-G1 [11]	Population (% Cell Distribution) Super-G2 [11]	GI50 [1]
COc1ccc(-c2ccc3c(c2O)C(=O)c2ccccc2C3=O)cc1 [Compound 27, 1-Hydroxy-2-(4-methoxyphenyl)anthracene-9,10-dione]	> 100 µM	8.5 ± 0.32 µM	209.5 °C (dec.)	cause a retardation of plasmid DNA	35.8 ± 2.17 µM	21.6 ± 0.38 µM	46.5 ± 1.21 µM	38.6 ± 1.36 µM	23.2 ± 2.34 µM	19.1 ± 0.78 µM	–	–	–	–	–	–	–
COc1cccc(-c2ccc3c(c2O)C(=O)c2ccccc2C3=O)c1OC [Compound 28, 2-(2,3-Dimethoxyphenyl)-1-hydroxyanthracene-9,10-dione]	23.1 ± 1.24 µM	5.77 ± 0.23 µM	176.3 °C (dec.)	–	> 100 µM	32.6 ± 1.68 µM	51.3 ± 3.18 µM	18.2 ± 0.86 µM	42.4 ± 3.32 µM	> 100 µM	16.83%	54.5%	13.7%	22.4%	3.6%	5.8%	–
O=C1c2ccccc2C(=O)c2c(-c3ccoc3)ccc(O)c21 [Compound 23, 1-(Furan-3-yl)-4-hydroxyanthracene-9,10-dione]	22.2 ± 2.12 µM	37 ± 1.41 µM	190 °C (dec.)	cause a retardation of plasmid DNA	58.7 ± 2.48 µM	34.8 ± 1.06 µM	69.5 ± 1.52 µM	56.1 ± 1.96 µM	18.2 ± 1.27 µM	15.4 ± 0.96 µM	22.71%	34.6%	17.3%	32.5%	3.1%	11.8%	–
COc1ccc(-c2cc(-c3ccc(OC)cc3)c3c(c2O)C(=O)c2ccccc2C3=O)cc1 [Compound 35, 1-Hydroxy-2,4-di-(4-methoxyphenyl)anthracene-9,10-dione]	26.7 ± 1.86 µM	10.1 ± 1.08 µM	226.4 °C (dec.)	cause a retardation of plasmid DNA	25.7 ± 3.14 µM	9.8 ± 0.56 µM	17.7 ± 0.96 µM	20.2 ± 1.04 µM	7.6 ± 0.64 µM	5.9 ± 0.52 µM	–	–	–	–	–	–	–
COc1ccc(-c2cc(Br)c3c(c2O)C(=O)c2ccccc2C3=O)cc1 [Compound 40, 4-Bromo-1-hydroxy-2-(4-methoxyphenyl)anthracene-9,10-dione]	22.2 ± 1.26 µM	6.1 ± 0.38 µM	187.1 °C (dec.)	–	10.2 ± 1.03 µM	8.1 ± 0.98 µM	16.5 ± 0.46 µM	35.6 ± 3.28 µM	10.5 ± 1.03 µM	7.1 ± 0.72 µM	–	–	–	–	–	–	–
O=C1c2ccccc2C(=O)c2c(O)c(-c3cc(F)cc(F)c3)cc(-c3cc(F)cc(F)c3)c21 [Compound 37, 2,4-Di-(3,5-difluorophenyl)-1-hydroxyanthracene-9,10-dione]	6.2 to 7.2 µM	9.1 ± 0.68 µM	263.3 °C (dec.)	–	8.7 ± 0.89 µM	10.1 ± 0.78 µM	10.5 ± 1.98 µM	56.6 ± 1.28 µM	8.2 ± 0.96 µM	5.8 ± 0.38 µM	–	–	–	–	–	–	6.2 ± 0.43 µM
COc1ccc(-c2ccc(O)c3c2C(=O)c2ccccc2C3=O)cc1 [Compound 15, 1-Hydroxy-4-(4-methoxyphenyl)anthracene-9,10-dione]	28.5 ± 0.96 µM	9.6 ± 1.04 µM	209.2 to 209.4 °C	cause a retardation of plasmid DNA	45.4 ± 1.87 µM	11.6 ± 0.78 µM	42 ± 2.04 µM	32.1 ± 1.54 µM	6.8 ± 0.58 µM	6.5 ± 0.48 µM	–	–	–	–	–	–	–
O=C1c2ccccc2C(=O)c2c(-c3ccco3)ccc(O)c21 [Compound 22, 1-(Furan-2-yl)-4-hydroxyanthracene-9,10-dione]	21.1 ± 0.85 µM	> 100 µM	141.8 °C (dec.)	–	> 100 µM	> 100 µM	52.2 ± 8.01 µM	> 100 µM	> 100 µM	24.2 ± 1.32 µM	–	–	–	–	–	–	–
Cc1ccccc1-c1ccc2c(c1O)C(=O)c1ccccc1C2=O [Compound 26, 1-Hydroxy-2-(o-tolyl)anthracene-9,10-dione]	74 ± 3.74 µM	> 100 µM	148.5 °C (dec.)	–	> 100 µM	> 100 µM	87.5 ± 9.11 µM	80 ± 5.21 µM	> 100 µM	70.2 ± 1.47 µM	–	–	–	–	–	–	–
